“Also recorded” adds a separate entry of the source. Like-named read-outs stand apart in the source and are kept apart here.
Tests used:
HEL cells [1] = assay: Proliferation inhibition assay (WST-1); type: cell-based, human; conditions: Homo sapiens
From the text: (§1) The HEL, SET2 and K562 human cell lines were purchased from the German Collection of Microorganisms and Cell Cultures (DSMZ, Braunschweig, Germany). Murine BaF/3 and BaF/3-EPOR cells expressing JAK2 wild-type (wt) or JAK2V617F were donated by R. Skoda (Basel, Switzerland).

K562 cells [2] = assay: Proliferation inhibition assay (WST-1); type: cell-based, human; conditions: Homo sapiens
From the text: as §1

SET2 cells [3] = assay: Proliferation inhibition assay (WST-1); type: cell-based, human; conditions: Homo sapiens
From the text: as §1

[4] = tested on: Peripheral Blood mononuclear cells from PV patients; assay: EEC colony formation assay; type: cell-based; conditions: Homo sapiens, PBMC
SET2 cells [5] = assay: Apoptosis by Annexin V flow cytometry; type: cell-based, human; conditions: SET2 cells exposed for 48 h
From the text: Results are expressed ad percent viable cells compared to control wells containing vehicle (DMSO) only. The fraction of necrotic cells was identified as the double-positive Annexin V/propidium iodide cells.

[6] = tested on: JAK2, STAT5, and 4EBP1 in SET2 cells; assay: Western blot of mTOR and JAK/STAT signaling; type: cell-based, human
Description: Cells were resuspended in RIPA lysis buffer (50 mM pH 7.4 Tris-HCl, 150 mM NaCl, 1% NP-40, 1 mMEDTA) containing a proteinase inhibitor cocktail (Halt Protease Inhibitor Cocktail Kit, PIERCE, Rockford, Ill., US) and subjected to sodium dodecyl sulphate polyacrylamide gel electrophoresis separation and western blotting onto Immunoblot PVDF membrane (BioRad, Hercules, Calif., US), according to standard protocols.
SET2 cells were incubated for 24 h with increasing concentrations of the drugs, and the level of total and phosphorylated JAK2, STAT5, and 4EBP1 was analyzed by western blot. Tubulin was used for loading normalization.

K562 cells [7] = assay: Clonogenic assay in agar; conditions: Homo sapiens, K562, 168 h, read-out: IC50, clonogenic assay
HEL cells [8] = assay: Clonogenic assay in agar; conditions: Homo sapiens, 168 h, read-out: IC50, clonogenic assay
SET2 cells [9] = assay: Clonogenic assay in agar; conditions: Homo sapiens
[10] = SET-2, read-out: IC50 of Cmp A in drug combination with PP242
[11] = SET-2, read-out: IC50 of Cmp A in drug combination with RAD001

Compound `Cc1[nH]c2ccccc2c1CCNCc1ccc(/C=C/C(=O)NO)cc1` [Panobinostat] has an IC50 (HEL cells [1]) of 8 ± 3 nM, an IC50 (K562 cells [2]) of 31 ± 8 nM and an IC50 (SET2 cells [3]; SET-2, SET2, individual drug, read-out: IC50, proliferation inhibition) of 7 ± 2 nM.

In the case of `N#CC[C@H](C1CCCC1)n1cc(-c2ncnc3[nH]ccc23)cn1` [Compound A, (3R)-3-cyclopentyl-3-[4-(7H-pyrrolo[2,3-d]pyrimidin-4-yl)-1H-pyrazol-1-yl]propanenitrile], the IC50 (SET2 cells [3]; [10]) is reported as 47 nM, the IC50 (SET2 cells [3]; [11]) is reported as 29 nM and the IC50 ([4]; read-out: IC50, clonogenic potential (EEC)) is reported as 1.8 ± 1 nM. The IC50 ([4]; read-out: IC50 of Cmp A in drug combination with PP242) was 0.1 nM, the IC50 ([4]; read-out: IC50 of Cmp A in drug combination with RAD001) was 0.2 nM and the “cell apoptosis (Annexin V-positive cells)” value (SET2 cells [5]) was “dose-dependently potent inducers of cell apoptosis; also recorded: potently induced cell apoptosis”. For the same compound, the “phosphorylated JAK2” value [6] was “markedly and dose-dependently reduced phosphorylation”, the “phosphorylation of 4E-BP1” value [6] was “unaffected” and the “phosphorylation of STAT5” value [6] was “markedly and dose-dependently reduced phosphorylation”. For the same compound, the IC50 (K562 cells [7]) was greater than 15000 nM, the IC50 (HEL cells [8]) was 374 ± 177 nM and the IC50 (SET2 cells [9]; [10]) was 7.6 nM. For the same compound, the IC50 (SET2 cells [9]; [11]) was 4 nM.

— patent publication US9993480B2, “mTOR/JAK inhibitor combination therapy” (NOVARTIS PHARMA AG, priority 2011, dated 2018)
